Experimental data taken from patent US20180057505A1, “BICYCLIC HETEROARYL COMPOUNDS USEFUL AS INHIBITORS OF THE PAR-2 SIGNALING PATHWAY” (VERTEX PHARMACEUTICALS INCORPORATED, priority 2015, published 2018).

Legend:
Type in all cases: cell-based
PAR2 (HT-29 cells) [1] = target: T1, PAR2 (HT-29 cells) (Homo sapiens, UniProt P55085); assay: Ca FLIPR TETRA assay, ANTAGONIST mode, activator 8 μM SLIGKV; details: HT-29 cells, activator 8 μM SLIGKV; maximal antagonist concentration per Method (A: 0.1, 1 or 2 μM; B: 50 μM)
T1 construct: host or cells: HT-29
T1 sequence (P55085 26-397): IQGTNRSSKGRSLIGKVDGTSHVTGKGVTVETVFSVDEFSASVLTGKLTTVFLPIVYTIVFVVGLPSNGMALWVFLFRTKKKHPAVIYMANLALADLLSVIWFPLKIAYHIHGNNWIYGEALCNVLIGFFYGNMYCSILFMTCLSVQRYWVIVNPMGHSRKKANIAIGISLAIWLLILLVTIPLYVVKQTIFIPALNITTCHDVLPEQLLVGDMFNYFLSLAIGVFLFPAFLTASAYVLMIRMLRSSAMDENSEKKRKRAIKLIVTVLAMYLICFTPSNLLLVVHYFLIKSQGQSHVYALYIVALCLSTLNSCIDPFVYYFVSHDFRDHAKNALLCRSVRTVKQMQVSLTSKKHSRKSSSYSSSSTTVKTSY
Outline: (§1)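 HT-29 cells plated overnight at 37 °C in 1% FBS/McCoy's, loaded with calcium 5 dye (45 min 37 °C, 15 min r.t.), then preincubated with compounds 30 min at r.t. before a fixed activator challenge. Intracellular Ca2+ read by FLIPR Tetra; a first read checks compound-alone activation.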

[2] = test system: Thrombin-stimulated Ca2+ response in HT-29 cells; assay: Ca FLIPR TETRA assay, ANTAGONIST mode, activator 1 U/mL Thrombin; details: Homo sapiens; HT-29 cells, activator 1 U/mL Thrombin
Outline: as §1

PAR2 (HT-29 cells) [3] = target: T1, PAR2 (HT-29 cells); assay: Ca FLIPR TETRA assay, ANTAGONIST mode, activator 3.1 U/mL trypsin; details: HT-29 cells, activator 3.1 U/mL trypsin; maximal antagonist concentration per Method (A: 0.1, 1 or 2 μM; B: 50 μM)
Outline: as §1

[4] = test system: UTP-stimulated Ca2+ response in HT-29 cells; assay: Ca FLIPR TETRA assay, ANTAGONIST mode, activator 0.6 μM UTP; details: Homo sapiens; HT-29 cells, activator 0.6 μM UTP
Outline: as §1

SMILES	IC50 (PAR2 (HT-29 cells) [1])	IC50 [2]	IC50 (PAR2 (HT-29 cells) [3])	IC50 [4]
CC(C)c1cc(-c2ccc(F)cc2)nc2cc(C(=O)N3CCN(C(=O)c4ccnn4C)CC3(C)C)oc12 [Example I-139]	24 nM	> 1000 nM	33 nM	> 1000 nM
Cc1cnoc1C(=O)N1CCN(C(=O)c2cc3nc(-c4ccc(F)cc4)cc(C(C)C)c3o2)C(C)(C)C1 [Example I-140]	4.8 nM	> 1000 nM	3.5 nM	> 1000 nM
CC(C)c1cc(-c2ccc(F)cc2)nc2cc(C(=O)N3CCN(C(=O)c4ccn(C)n4)CC3(C)C)oc12 [Example I-141]	3.2 nM	> 1000 nM	4.2 nM	> 1000 nM
CC(C)c1cc(-c2ccc(F)cc2)nc2cc(C(=O)N3CCN(C(=O)c4nnc[nH]4)CC3(C)C)oc12 [Example I-142]	7.2 nM	> 1000 nM	13 nM	> 1000 nM
C=C(C)c1cc(-c2ccc(F)cc2)nc2cc(C(=O)N3CCN(C(=O)[C@H]4C[C@](O)(C(F)(F)F)C4)CC3(C)C)oc12 [Example I-143]	2.1 nM	> 1000 nM	2.2 nM	> 1000 nM
CC(C)c1cc(-c2ccc(F)cc2)nc2cc(C(=O)N3CCN(S(=O)(=O)c4cn(C)cn4)CC3(C)C)oc12 [Example I-144]	24 nM	> 1000 nM	31 nM	> 1000 nM
Cc1ncc(S(=O)(=O)N2CCN(C(=O)c3cc4nc(-c5ccc(F)cc5)cc(C(C)C)c4o3)C(C)(C)C2)n1C [Example I-145]	40 nM	> 1000 nM	42 nM	> 1000 nM
Cc1nn(C)cc1S(=O)(=O)N1CCN(C(=O)c2cc3nc(-c4ccc(F)cc4)cc(C(C)C)c3o2)C(C)(C)C1 [Example I-146]	13 nM	> 1000 nM	21 nM	> 1000 nM
CC(C)c1cc(-c2ccc(F)cc2)nc2cc(C(=O)N3CCN(S(=O)(=O)c4cn[nH]c4)CC3(C)C)oc12 [Example I-147]	20 nM	> 1000 nM	34 nM	> 1000 nM
CC(C)c1cc(-c2ccc(F)cc2)nc2cc(C(=O)N3CCN(S(=O)(=O)c4ccn(C)n4)CC3(C)C)oc12 [Example I-148]	46 nM	> 1000 nM	36 nM	> 1000 nM
CC(C)(C)c1cc(-c2ccc(F)cc2)nc2cc(C(=O)N3CCNC(=O)C3(C)C)oc12 [Example I-149]	7.6 nM	> 1000 nM	9.6 nM	> 1000 nM
CCc1cc(-c2ccc(F)cc2)nc2cc(C(=O)N3CCN(C(=O)[C@H]4C[C@](O)(C(F)(F)F)C4)CC3(C)C)oc12 [Example I-150]	1.1 nM	> 1000 nM	1.6 nM	> 1000 nM
CC(C)(C)c1cc(-c2ccc(F)cc2)nc2cc(C(=O)N3CCN(C(=O)[C@H]4C[C@@](C)(O)C4)CC3(C)C)oc12 [Example I-151]	1.5 nM	> 1000 nM	2.7 nM	> 1000 nM
CC(C)(C)c1cc(-c2ccc(F)cc2)nc2cc(C(=O)N3CCN(C(=O)c4ccn[nH]4)CC3(C)C)oc12 [Example I-152]	8.1 nM	> 1000 nM	7.7 nM	> 1000 nM
CC(C)(C)c1cc(-c2ccc(Cl)cc2)nc2cc(C(=O)N3CCNC(=O)C3(C)C)oc12 [Example I-153, 4-[7-tert-butyl-5-(4-chlorophenyl)furo[3,2-b]pyridine-2-carbonyl]-3,3-dimethyl-piperazin-2-one]	4.9 nM	> 1000 nM	3 nM	> 1000 nM
CC(C)(C)c1cc(-c2ccc(F)cc2)nc2cc(C(=O)N3CCN(C(=O)c4nnc[nH]4)CC3(C)C)oc12 [Example I-154]	4.7 nM	> 1000 nM	3.6 nM	> 1000 nM
CC(C)c1cc(-c2ccc(C(F)(F)F)cc2)nc2cc(C(=O)N3CCNC(=O)C3(C)C)oc12 [Example I-155]	14 nM	> 1000 nM	28 nM	> 1000 nM
CC(C)(C)c1cc(-c2ccc(C(F)(F)F)cc2)nc2cc(C(=O)N3CCNC(=O)C3(C)C)oc12 [Example I-156]	18 nM	> 1000 nM	26 nM	> 1000 nM
